Where two headings read alike, the source gives them in different places.
Tests used:
[1] = target: T1, PRC2/EZH2+/+ (Homo sapiens, UniProt Q15910); assay: Equilibrium probe competition assay (ePCA), TR-FRET; assay type: binding
T1 construct: purchased Active Motif

[2] = target: T2, PRC2/EZH2Y111D (Homo sapiens, UniProt Q15910, Y111D); assay: Scintillation proximity assay (SPA) of H3K27 methylation; assay type: biochemical
T2 construct: N-terminal 6His-tagged full length EZH2^Y641N, EZH2^Y111L, EZH2^Y111D; 6His (N); made in house; host or cells: Sf9 insect cells (baculovirus co-infection)
Method: (§1) Assay-ready plates containing 50 nl of compound dilutions and DMSO controls were filled with 2.5 µL enzyme solution and pre-incubated for 15 min. […] Experiments were also performed without pre-incubation of enzyme and compounds. In this case, the substrate solution was added before enzyme. The reaction was stopped using 1.6 µg/µl streptavidin beads (Perkin Elmer) and 700 µM of SAM (Perkin Elmer). The plates were sealed with transparent foil.
(§2) For equilibrium binding competition (ePCA) and SPA enzyme inhibition assays, raw data import, quality control, normalization, and curve fitting to a 4-parameter logistic equation for IC50 determination were performed using the Genedata Screener® software (Genedata AG). ePCA Ki values were either calculated using the Cheng-Prussof equation[68] or with the GraphPad Prism model “One-site—Fit Ki”.

[3] = target: T1, PRC2/EZH2+/+; assay: as above; assay type: biochemical
Method: as §1, §2

[4] = target: T3, PRC2/EZH2Y641N+Y661D (Homo sapiens, UniProt Q15910, Y641N/Y661D); assay: as above; assay type: biochemical
T3 construct: N-terminal 6His-tagged full length EZH2^Y641N, EZH2^Y111L, EZH2^Y111D, EZH2^Y641N, Y661DEZH2, EZH1; 6His (N); made in house; host or cells: Sf9 insect cells (baculovirus co-infection)
Method: as §1, §2

[5] = target: T4, PRC2/EZH2 Y111L (Homo sapiens, UniProt Q15910, Y111L); assay: as above; assay type: biochemical
T4 construct: N-terminal 6His-tagged full length EZH2^Y641N, EZH2^Y111L; 6His (N); made in house; host or cells: Sf9 insect cells (baculovirus co-infection)
Method: as §1, §2

[6] = target: T5, PRC2/EZH2Y641N (Homo sapiens, UniProt Q15910, Y641N); assay: as above; assay type: biochemical
T5 construct: Synthetic cDNA encoding N-terminal 6His-tagged full length EZH2^Y641N; 6His (N); made in house; host or cells: Sf9 insect cells (baculovirus co-infection)
Method: as §1, §2

[7] = target: T5, PRC2/EZH2Y641N; assay: Kinetic probe competition assay (kPCA), TR-FRET; assay type: binding
Text: Biotinylated PRC2 complexes and the fluorescent probe used in TR-FRET assays were generated as described in the supplementary methods section.

[8] = target: T5, PRC2/EZH2Y641N; assay: Equilibrium probe competition assay (ePCA), TR-FRET; assay type: binding
[9] = system: KARPAS-422 cells; assay: Cellular proliferation assay (AlamarBlue, 144 h); assay type: cell-based; details: Homo sapiens
Method: Cell viability was determined by means of the AlamarBlue® reagent (Thermo Fisher Scientific) following instructions from the manufacturer. […] Anti-proliferative IC50s were calculated by fitting the normalized AlamarBlue® fluorescence values to a 4-parameter logistic equation using the Electronic Notebook (ELN) software from IDBS.

[10] = in vitro; assay type: in vitro ADME; details: human, Caco-2, pH 7.2; for Papp A→B at 2 h, 2 µM / Papp B→A at 2 h, 2 µM: 37 °C; for Papp A→B at 2 h, 2 µM: apical to basolateral, read-out: PK Caco-2 Flux Papp A-B (mean); for Papp B→A at 2 h, 2 µM: basolateral to apical, read-out: PK Caco-2 Flux Papp B-A (mean)
Method: Cells were kept at 37 °C in a humidified 5% CO2 atmosphere. Before the permeation assay was run, the culture medium was replaced by an FCS-free HEPES carbonate transport buffer (pH 7.2). For assessment of monolayer integrity, the transepithelial electrical resistance was measured. Test compounds were pre-dissolved in DMSO and added either to the apical or basolateral compartment at a final concentration of 2 µM. Before and after 2 h incubation at 37 °C, samples were taken from both compartments. Analysis of compound content was conducted after precipitation with methanol by LC/MS/MS analysis. Reference compounds were analyzed in parallel as assay control. Permeability (Papp) was calculated in the apical to basolateral (A → B) and basolateral to apical (B → A) directions. The efflux ratio basolateral (B) to apical (A) was calculated by dividing Papp B–A by Papp A–B.

[11] = EZH2+/+ (+ H3K27me3), sheet ePCA&kPCA RT, read-out: Equilibrium Ki
[12] = EZH2+/+ (- H3K27me3), 5 °C, read-out: Ki (Equilibrium)
[13] = EZH2+/+ (- H3K27me3), 15 °C, read-out: Ki (Equilibrium)
[14] = EZH2+/+ (- H3K27me3), 30 °C, read-out: Ki (Equilibrium)
[15] = EZH2+/+ (- H3K27me3), 37 °C, read-out: Ki (Equilibrium)
[16] = EZH2+/+ (- H3K27me3), sheet ePCA&kPCA RT, read-out: Equilibrium Ki
[17] = 0' enzyme:inhibitor pre-incubation, read-out: SPA Mean IC50 (M) - 0' enzyme:inhibitor pre-incubation EZH2Y111D
[18] = 15' enzyme:inhibitor pre-incubation, read-out: SPA Mean IC50 (M) - 15' enzyme:inhibitor pre-incubation EZH2Y111D
[19] = 60' enzyme:inhibitor pre-incubation, read-out: SPA Mean IC50 (M) - 60' enzyme:inhibitor pre-incubation EZH2Y111D
[20] = 0' enzyme:inhibitor pre-incubation, read-out: SPA Mean IC50 (M) - 0' enzyme:inhibitor pre-incubation EZH2+/+
[21] = 15' enzyme:inhibitor pre-incubation, read-out: SPA Mean IC50 (M) - 15' enzyme:inhibitor pre-incubation EZH2+/+
[22] = 60' enzyme:inhibitor pre-incubation, read-out: SPA Mean IC50 (M) - 60' enzyme:inhibitor pre-incubation EZH2+/+
[23] = 0' enzyme:inhibitor pre-incubation, read-out: SPA Mean IC50 (M) - 0' enzyme:inhibitor pre-incubation EZH2Y641N+Y661D
[24] = 15' enzyme:inhibitor pre-incubation, read-out: SPA Mean IC50 (M) - 15' enzyme:inhibitor pre-incubation EZH2Y641N+Y661D
[25] = 60' enzyme:inhibitor pre-incubation, read-out: SPA Mean IC50 (M) - 60' enzyme:inhibitor pre-incubation EZH2Y641N+Y661D
[26] = 0' enzyme:inhibitor pre-incubation, read-out: SPA Mean IC50 (M) - 0' enzyme:inhibitor pre-incubation EZH2 Y111L
[27] = 15' enzyme:inhibitor pre-incubation, read-out: SPA Mean IC50 (M) - 15' enzyme:inhibitor pre-incubation EZH2 Y111L
[28] = 60' enzyme:inhibitor pre-incubation, read-out: SPA Mean IC50 (M) - 60' enzyme:inhibitor pre-incubation EZH2 Y111L
[29] = 0' enzyme:inhibitor pre-incubation, read-out: SPA Mean IC50 (M) - 0' enzyme:inhibitor pre-incubation hEZH2Y641N
[30] = 15' enzyme:inhibitor pre-incubation, read-out: SPA Mean IC50 (M) - 15' enzyme:inhibitor pre-incubation EZH2Y641N
[31] = 60' enzyme:inhibitor pre-incubation, read-out: SPA Mean IC50 (M) - 60' enzyme:inhibitor pre-incubation EZH2Y641N
[32] = EZH2Y641N (+ H3K27me3), kinetic, RT sheet
[33] = EZH2Y641N (- H3K27me3), sheet ePCA&kPCA RT
[34] = EZH2Y641N (+ H3K27me3), equilibrium, RT sheet
[35] = EZH2Y641N (+ H3K27me3), RT sheet

Compound: CCCc1cc(C)[nH]c(=O)c1CNC(=O)c1cc(-c2ccc(N3CCN(C(C)C)CC3)nc2)cc2c1cnn2C(C)C [Compound 9, UNC1999]
- Ki [1, 11]: 0.00114 µM
- Ki [1, 12]: 0.00192 µM
- Ki [1, 13]: 0.0016 µM
- Ki [1, 14]: 0.00806 µM
- Ki [1, 15]: 0.00947 µM
- Ki [1, 16]: 0.00283 µM
- Ki ([1]; wild type EZH2, absence of H3K27me3 peptide, read-out: Ki): 0.0028 ± 0.0009 µM
- Ki ([1]; wild type EZH2, saturating concentrations of H3K27me3 peptide, read-out: Ki): 0.0011 ± 0.0005 µM
- IC50 [2, 17]: 5.9e-06 M
- IC50 [2, 18]: 4e-06 M
- IC50 [2, 19]: 3.2e-06 M
- IC50 [3, 20]: 5.2e-09 M
- IC50 [3, 21]: 3.7e-09 M
- IC50 [3, 22]: 3.1e-09 M
- IC50 [4, 23]: 3e-06 M
- IC50 [4, 24]: 2.4e-06 M
- IC50 [4, 25]: 3.2e-06 M
- IC50 [5, 26]: 3.1e-08 M
- IC50 [5, 27]: 2.2e-08 M
- IC50 [5, 28]: 2.5e-08 M
- IC50 [6, 29]: 3.8e-08 M
- IC50 [6, 30]: 3.6e-08 M
- IC50 [6, 31]: 3.2e-08 M
- Calculated RT ([7]; EZH2Y641N (+ H3K27me3)): 0.07 h
- Kd [7, 32]: 0.00456 µM
- Calculated RT ([7]; EZH2Y641N (- H3K27me3)): 0.0242 h
- Kd [7, 33]: 0.035 µM
- Ki [8, 34]: 0.00665 µM
- Ki [8, 33]: 0.0265 µM
- IC50 ([9]; KARPAS-422 cells, 6-day (144 h), AlamarBlue, read-out: KARPAS (6-day) Anti-proliferation IC50): 6.3e-07 M
- Papp A→B at 2 h, 2 µM [10]: 0.314 ×10⁻⁶ cm/s
- Papp B→A at 2 h, 2 µM [10]: 12.6 ×10⁻⁶ cm/s

Compound: Cc1cc(C)c(CN2CCc3c(Cl)cc(-c4c(C)noc4C)c(Cl)c3C2=O)c(=O)[nH]1 [Compound 14]
- Ligand Efficiency ([1]; EZH2+/+ (+ H3K27me3)): 1.6
- Ki [1, 11]: 0.000907 µM
- Ligand Efficiency ([1]; EZH2+/+ (- H3K27me3)): 1.5
- Ki [1, 12]: 0.0011 µM
- Ki [1, 13]: 0.00081 µM
- Ki [1, 14]: 0.00196 µM
- Ki [1, 15]: 0.0023 µM
- Ki [1, 16]: 0.00147 µM
- Ligand Efficiency - 0' enzyme:inhibitor pre-incubation EZH2Y111D [2]: 0.9
- Ligand Efficiency - 15' enzyme:inhibitor pre-incubation EZH2Y111D [2]: 0.9
- Ligand Efficiency - 60' enzyme:inhibitor pre-incubation EZH2Y111D [2]: 0.857
- IC50 [2, 17]: 1.3e-05 M
- IC50 [2, 18]: 8.5e-06 M
- IC50 [2, 19]: 1.3e-05 M
- Ligand Efficiency - 0' enzyme:inhibitor pre-incubation EZH2+/+ [3]: 1.5
- Ligand Efficiency - 15' enzyme:inhibitor pre-incubation EZH2+/+ [3]: 1.5
- Ligand Efficiency - 60' enzyme:inhibitor pre-incubation EZH2+/+ [3]: 1.5
- IC50 [3, 20]: 4.1e-09 M
- IC50 [3, 21]: 1.9e-09 M
- IC50 [3, 22]: 1.8e-09 M
- Ligand Efficiency - 0' enzyme:inhibitor pre-incubation EZH2Y641N+Y661D [4]: 1.0
- Ligand Efficiency - 15' enzyme:inhibitor pre-incubation EZH2Y641N+Y661D [4]: 1.0
- Ligand Efficiency - 60' enzyme:inhibitor pre-incubation EZH2Y641N+Y661D [4]: 1.0
- IC50 [4, 23]: 1.4e-06 M
- IC50 [4, 24]: 1.1e-06 M
- IC50 [4, 25]: 1.6e-06 M
- Ligand Efficiency - 0' enzyme:inhibitor pre-incubation EZH2 Y111L [5]: 1.0
- Ligand Efficiency - 15' enzyme:inhibitor pre-incubation EZH2 Y111L [5]: 1.1
- Ligand Efficiency - 60' enzyme:inhibitor pre-incubation EZH2 Y111L [5]: 1.0
- IC50 [5, 26]: 1.1e-06 M
- IC50 [5, 27]: 9.6e-07 M
- IC50 [5, 28]: 1.1e-06 M
- IC50 [6, 29]: 1.5e-08 M
- IC50 [6, 30]: 1.1e-08 M
- IC50 [6, 31]: 1.2e-08 M
- Ligand Efficiency - 0' enzyme:inhibitor pre-incubation hEZH2Y641N ([6]; from SPA pIC50 (1.4*pIC50 / atom count), 0' pre-incubation): 1.4
- Ligand Efficiency - 15' enzyme:inhibitor pre-incubation EZH2Y641N ([6]; from SPA pIC50 (1.4*pIC50 / atom count), 15' pre-incubation): 1.4
- Ligand Efficiency - 60' enzyme:inhibitor pre-incubation EZH2Y641N ([6]; from SPA pIC50 (1.4*pIC50 / atom count), 60' pre-incubation): 1.4
- Kinetic Efficiency ([7]; EZH2Y641N (+ H3K27me3)): 2.02E-02
- koff [7, 35]: 0.000921 s⁻¹
- kon [7, 35]: 1.28e+06 M⁻¹ s⁻¹
- Calculated RT ([7]; EZH2Y641N (+ H3K27me3)): 0.16 h
- Kd [7, 32]: 0.00068 µM
- Kinetic Efficiency ([7]; EZH2Y641N (- H3K27me3)): 2.35E-02
- Calculated RT ([7]; EZH2Y641N (- H3K27me3)): 0.19 h
- Kd [7, 33]: 0.00283 µM
- koff [7, 33]: 0.00136 s⁻¹
- kon [7, 33]: 496000 M⁻¹ s⁻¹
- Ligand Efficiency ([8]; EZH2Y641N (+ H3K27me3)): 1.6
- Ki [8, 34]: 0.00135 µM
- Ligand Efficiency ([8]; EZH2Y641N (- H3K27me3)): 1.5
- Ki [8, 33]: 0.00299 µM
- IC50 ([9]; KARPAS-422, 144 h, read-out: KARPAS (6-day) Anti-proliferation IC50 (M)): 6.4e-07 M
- Papp A→B at 2 h, 2 µM [10]: 15.4 ×10⁻⁶ cm/s
- Papp B→A at 2 h, 2 µM [10]: 17.4 ×10⁻⁶ cm/s
- efflux ratio at 2 h, 2 µM ([10]; Papp B-A divided by Papp A-B, read-out: PK Caco-2 Flux Efflux Ratio (mean)): 1.13

Source: PMC10799085, “A miniaturized mode-of-action profiling platform enables high throughput characterization of the molecular and cellular dynamics of EZH2 inhibition” (Scientific Reports, 2024)
